Assay results published in article PMC10716780, “The multistep oxidation of cholesterol to pregnenolone by human cytochrome P450 11A1 is highly processive” (The Journal of Biological Chemistry, 2023).
Values joined by “and” are separate entries in the source; they are usually repeats but may differ in a detail not shown here. Identical values can stand only once.

Target: T1, human P450 11A1 (Homo sapiens, UniProt P05108)
T1 sequence (P05108 41-521 limits assumed): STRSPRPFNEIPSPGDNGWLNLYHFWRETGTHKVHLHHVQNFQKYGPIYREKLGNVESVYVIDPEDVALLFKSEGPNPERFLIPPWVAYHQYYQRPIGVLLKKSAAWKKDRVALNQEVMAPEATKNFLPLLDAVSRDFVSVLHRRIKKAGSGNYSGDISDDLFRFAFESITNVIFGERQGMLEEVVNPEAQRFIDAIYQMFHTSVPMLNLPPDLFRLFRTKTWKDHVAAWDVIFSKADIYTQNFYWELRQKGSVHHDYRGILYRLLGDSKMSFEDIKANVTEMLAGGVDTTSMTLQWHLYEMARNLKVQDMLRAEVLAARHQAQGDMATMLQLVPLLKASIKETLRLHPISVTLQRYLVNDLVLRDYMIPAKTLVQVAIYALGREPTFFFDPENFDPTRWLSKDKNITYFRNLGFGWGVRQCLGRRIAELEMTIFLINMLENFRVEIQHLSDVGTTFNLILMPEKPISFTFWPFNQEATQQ
T1 sequence (P00257 59-186 partner): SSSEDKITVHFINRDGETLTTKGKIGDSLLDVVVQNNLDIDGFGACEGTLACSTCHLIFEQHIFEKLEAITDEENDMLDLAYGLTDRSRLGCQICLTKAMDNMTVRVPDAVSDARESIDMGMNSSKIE
Experiment: Steady-state conversion of sterols to pregnenolone by reconstituted P450 11A1 (UPLC-MS of dansyl hydrazone)
Assay type: biochemical
Parameters: M A S T R S P R P F N E I P S P G D N; Met-Ala (N-terminal start residues in place of the transit peptide and Ile40) (N); made in house; host or cells: E. coli (P450 11A1 in C41(DE3); Adx and AdR in E. coli)
Settings: for Km / kcat / kcat (conversion of sterol to pregnenolone): 0.25 μM P450, 0.5 μM AdR, 10 μM Adx, 37 °C; for rate of pregnenolone formation: duplicate, raw data of Fig. 5
Protocol: Accordingly, all steady-state assays were done, unless otherwise noted, with a P450 11A1:Adx:AdR molar ratio of 1:40:2 (Fig. 2, that is, 0.25 μM P450, 10 μM Adx, and 0.5 μM AdR), in the absence of added lipid or detergent, and with the addition of sterol substrates in HPCD (stock 45% w/v).
As mentioned in the Introduction, many types of assays have been used to monitor the steady-state conversion of cholesterol to pregnenolone ([12], [14], [15], [16], [17], [18], [19], [20], [21]). A reliable and sensitive method was required that could be used for presteady-state reactions and was not reliant on the presence of isotope in cholesterol, in that, we also worked with 22R-OH cholesterol and 20R,22R-(OH)2 cholesterol as substrates. We utilized a method based on our work with P450 17A1 ([41], [42]), in which we derivatized the product pregnenolone as its dansyl hydrazone and separated it by ultra-performance liquid chromatography (UPLC) with detection by positive ion electrospray mass spectrometry (MS). The steroid dehydroepiandosterone (DHEA) was used an internal standard.
Reactions were performed by reconstituting P450 (0.25 μM), AdR (0.5 μM), and Adx (10 μM) on ice for 10 min prior to dilution in potassium Hepes buffer (50 mM, pH 7.4) and H2O and the addition of substrate (sterol, in HPCD (45% w/v)). Sterol dilutions were performed in HPCD to ensure that the HPCD composition was equal throughout all incubations (final 4.5% w/v). The reaction mixture was split between vials (425 μl in each), and reactions were preincubated (37 °C, 5 min) prior to initiation (75 μl) with an NADPH-generating system (0.5 mM NADP^+, 10 mM glucose 6-phosphate, and 2 μg ml^−1 glucose 6-phosphate dehydrogenase) ([61]). Reactions (5 min) were terminated by extraction into CH2Cl2 (2 ml) and transferred to an ice bath. After the experiment was complete, the quenched reactions were subjected to centrifugation (10^3g, 5 min, 23 °C) to separate layers, the organic (bottom) layer of each sample was removed (1.6 ml) to fresh glass vials, and the samples were brought to dryness under a stream of nitrogen.
Steroid extracts were subsequently derivatized with dansylhydrazine and analyzed as described previously ([42]). Briefly, the dried residue was resuspended (200 μl) in C2H5OH (fortified with 0.1% v/v CF3CO2H, as the derivatization reaction is H^+-catalyzed) and mixed with a vortex device. Samples were transferred to 1.5 ml amber glass vials, solutions of dansylhydrazine (10 mM) and DHEA, 10 μM, as internal standard) were added, and vials were capped, mixed with a vortex device, and incubated in the dark overnight (∼16 h, 23 °C). The derivatization reaction was quenched with acetone […], briefly incubated in the dark (∼30 min, 23 °C), and was then neutralized with base (250 μl of 0.5 M NaOH) and extracted into CH2Cl2 (1 ml). The samples were mixed with a vortex device and the organic (bottom) layer was removed (0.8 ml) to clean amber vials. Solvent was again removed under nitrogen, and the dried residue was dissolved in a mobile phase (100 μl) of 0.1% CF3CO2H in aqueous CH3CN (50%, v/v) for analysis.
Samples were injected (10 μl, held at 25 °C) on a 2.1 mm × 50 mm (1.7 μm) Acquity BEH octadecylsilane (C18) column (held at 40 °C) using a Waters Acquity UPLC with a flow rate of 0.2 ml min^−1 and a gradient mobile phase of (A) 0.1% aqueous HCO2H and (B) CH3CN as follows (all %B, v/v): 0 min, 40%; 0.5 min, 40%; 8 min, 100%; 8.5 min, 95%; 9 min, 100%; 9.1 min, 40%; and 10 min, 40%.

## CC(C)CC[C@@H](O)[C@](C)(O)[C@H]1CC[C@H]2[C@@H]3CC=C4C[C@@H](O)CC[C@]4(C)[C@H]3CC[C@]12C [20R,22R-(OH)2 Chol, (20R,22R)-Cholest-5-ene-3β,20,22-triol]
  Km: 36 ± 7 µM
  kcat: 0.233 ± 0.017 s⁻¹
  kcat (conversion of sterol to pregnenolone): 0.23 ± 0.02 s⁻¹
Steady state
  kcat and kcat/Km relative to starting substrate cholesterol (greater): ~2 fold
Substrate 5 µM, listed as 20R,22R-(OH)2 Cholesterol
  rate of pregnenolone formation: 2.46 min⁻¹ and 2.24 min⁻¹
Substrate 7.5 µM, listed as 20R,22R-(OH)2 Cholesterol
  rate of pregnenolone formation: 2.57 min⁻¹ and 2.85 min⁻¹
Substrate 15 µM, listed as 20R,22R-(OH)2 Cholesterol
  rate of pregnenolone formation: 3.83 min⁻¹ and 4.18 min⁻¹
Substrate 20 µM, listed as 20R,22R-(OH)2 Cholesterol
  rate of pregnenolone formation: 4.26 min⁻¹ and 5.83 min⁻¹
Substrate 30 µM, listed as 20R,22R-(OH)2 Cholesterol
  rate of pregnenolone formation: 5.47 min⁻¹ and 6.23 min⁻¹
Substrate 40 µM, listed as 20R,22R-(OH)2 Cholesterol
  rate of pregnenolone formation: 7.20 min⁻¹ and 6.21 min⁻¹
Substrate 50 µM, listed as 20R,22R-(OH)2 Cholesterol
  rate of pregnenolone formation: 6.51 min⁻¹ and 8.53 min⁻¹
Substrate 75 µM, listed as 20R,22R-(OH)2 Cholesterol
  rate of pregnenolone formation: 7.45 min⁻¹ and 10.26 min⁻¹
Substrate 100 µM, listed as 20R,22R-(OH)2 Cholesterol
  rate of pregnenolone formation: 12.01 min⁻¹ and 10.27 min⁻¹
Substrate 150 µM, listed as 20R,22R-(OH)2 Cholesterol
  rate of pregnenolone formation: 9.70 min⁻¹ and 11.61 min⁻¹

## CC(C)CC[C@H](O)[C@](C)(O)[C@H]1CC[C@H]2[C@@H]3CC=C4C[C@@H](O)CC[C@]4(C)[C@H]3CC[C@]12C [20R,22S-(OH)2 Chol, (20R,22S)-Cholest-5-ene 3β,20,22-triol]
  Km: 15 ± 2 µM
  kcat: 0.0833 ± 0.0033 s⁻¹
  kcat (conversion of sterol to pregnenolone): 0.083 ± 0.003 s⁻¹
Steady state
  kcat lower than native diol 20R,22R-(OH)2 cholesterol: ~3 fold
Substrate 7.5 µM, listed as 20R,22S-(OH)2 Cholesterol
  rate of pregnenolone formation: 2.07 min⁻¹ and 1.68 min⁻¹
Substrate 15 µM, listed as 20R,22S-(OH)2 Cholesterol
  rate of pregnenolone formation: 1.97 min⁻¹ and 1.99 min⁻¹
Substrate 20 µM, listed as 20R,22S-(OH)2 Cholesterol
  rate of pregnenolone formation: 2.93 min⁻¹ and 2.88 min⁻¹
Substrate 30 µM, listed as 20R,22S-(OH)2 Cholesterol
  rate of pregnenolone formation: 3.59 min⁻¹ and 3.11 min⁻¹
Substrate 40 µM, listed as 20R,22S-(OH)2 Cholesterol
  rate of pregnenolone formation: 3.90 min⁻¹ and 4.10 min⁻¹
Substrate 50 µM, listed as 20R,22S-(OH)2 Cholesterol
  rate of pregnenolone formation: 3.70 min⁻¹ and 3.57 min⁻¹
Substrate 75 µM, listed as 20R,22S-(OH)2 Cholesterol
  rate of pregnenolone formation: 4.16 min⁻¹ and 4.38 min⁻¹
Substrate 100 µM, listed as 20R,22S-(OH)2 Cholesterol
  rate of pregnenolone formation: 4.14 min⁻¹ and 4.09 min⁻¹
Substrate 150 µM, listed as 20R,22S-(OH)2 Cholesterol
  rate of pregnenolone formation: 4.64 min⁻¹ and 4.37 min⁻¹

## CC(C)CC[C@@H](O)[C@@H](C)[C@H]1CC[C@H]2[C@@H]3CC=C4C[C@@H](O)CC[C@]4(C)[C@H]3CC[C@]12C [22R-OH Chol, 22R-hydroxycholesterol]
  Km: 29 ± 3 µM
  kcat: 0.152 ± 0.005 s⁻¹
  kcat (conversion of sterol to pregnenolone): 0.15 ± 0.01 s⁻¹
Substrate 2.5 µM, listed as 22R-OH Cholesterol
  rate of pregnenolone formation: 1.34 min⁻¹ and 1.02 min⁻¹
Substrate 5 µM, listed as 22R-OH Cholesterol
  rate of pregnenolone formation: 1.68 min⁻¹ and 1.48 min⁻¹
Substrate 7.5 µM, listed as 22R-OH Cholesterol
  rate of pregnenolone formation: 1.94 min⁻¹ and 2.15 min⁻¹
Substrate 15 µM, listed as 22R-OH Cholesterol
  rate of pregnenolone formation: 3.15 min⁻¹ and 3.07 min⁻¹
Substrate 20 µM, listed as 22R-OH Cholesterol
  rate of pregnenolone formation: 3.29 min⁻¹ and 3.38 min⁻¹
Substrate 30 µM, listed as 22R-OH Cholesterol
  rate of pregnenolone formation: 4.66 min⁻¹ and 5.17 min⁻¹
Substrate 40 µM
  rate of pregnenolone formation: 5.08 min⁻¹
Substrate 50 µM, listed as 22R-OH Cholesterol
  rate of pregnenolone formation: 5.23 min⁻¹ and 5.80 min⁻¹
Substrate 75 µM, listed as 22R-OH Cholesterol
  rate of pregnenolone formation: 6.76 min⁻¹ and 6.27 min⁻¹
Substrate 100 µM, listed as 22R-OH Cholesterol
  rate of pregnenolone formation: 7.41 min⁻¹ and 6.71 min⁻¹
Substrate 150 µM, listed as 22R-OH Cholesterol
  rate of pregnenolone formation: 7.68 min⁻¹ and 8.05 min⁻¹

## CC(C)CCC[C@@H](C)[C@H]1CC[C@H]2[C@@H]3CC=C4C[C@@H](O)CC[C@]4(C)[C@H]3CC[C@]12C [Cholesterol]
  Km: 38 ± 6 µM
  kcat: 0.115 ± 0.0083 s⁻¹
  kcat (conversion of sterol to pregnenolone): 0.12 ± 0.01 s⁻¹
Listed as cholesterol
  kcat (conversion of sterol to pregnenolone): 0.12 s⁻¹
40-fold excess Adx
  kcat for conversion to pregnenolone: 6.9 nmol product formed min^−1 (nmol P450)^−1
Substrate 7.5 µM
  rate of pregnenolone formation: 1.32 min⁻¹ and 1.18 min⁻¹
Substrate 15 µM
  rate of pregnenolone formation: 1.88 min⁻¹ and 1.72 min⁻¹
Substrate 20 µM
  rate of pregnenolone formation: 2.38 min⁻¹ and 2.20 min⁻¹
Substrate 30 µM
  rate of pregnenolone formation: 2.47 min⁻¹ and 2.46 min⁻¹
Substrate 40 µM
  rate of pregnenolone formation: 3.96 min⁻¹ and 3.88 min⁻¹
Substrate 50 µM
  rate of pregnenolone formation: 4.06 min⁻¹ and 4.00 min⁻¹
Substrate 75 µM
  rate of pregnenolone formation: 4.99 min⁻¹ and 4.93 min⁻¹
Substrate 100 µM
  rate of pregnenolone formation: 5.93 min⁻¹ and 4.92 min⁻¹
Substrate 150 µM
  rate of pregnenolone formation: 4.83 min⁻¹ and 5.08 min⁻¹
